Measurements: patent publication US4443626A, “2,3-Dihydro-indene derivatives” (Hisamitsu Pharmaceutical Co., Inc., priority 1982, dated 1984)

Key:
passive Arthus reaction = assay: Effect on passive Arthus reaction in rats (hind paw swelling); type: in vivo, rat (Wistar strain, male); conditions: Rattus norvegicus, po, 3 h, read-out: Swelling inhibiting ratio; for inhibition in vivo at 100 mg/kg: 100 mg/kg orally, one hour before induction, hind paw volume measured three hours after induction, anti BSA rabbit serum / BSA, relative to control group
Method: Effect on passive Arthus reaction in rats
The rats which had been fasted for 18 hours were sensitized by injecting 0.3 ml of a 10% solution of an anti BSA rabbit serum (precipitation titer, 32 times) to them at the tail vein. […] On the other hand, only the vehicle was administered to the remainder of the test animals. [formula]

mice = assay: Test for acute toxicity on mice; type: in vivo; conditions: one week after the administration, dead/tested
Excerpt: Test for acute toxicity on mice
Groups each consisting of 6 male mice of ddY strain weighing between 22 and 26 g were used in this experiment.
Suspensions of the test compounds and indomethacin as the control in an 0.5% aqueous solution of tragacanth were orally administered respectively to the test animals, after which the test animals had been observed for a week to find the lethality thereof.

Structure (SMILES)	inhibition in vivo at 100 mg/kg (passive Arthus reaction)	Lethality (mice; 2,000 mg/kg orally)	also measured
O=C(O)CCC1Cc2ccc(Cl)cc2C1=O (stereo not shown) [Example 3, 6-chloro-1-oxo-2,3-dihydro-2-indene propionic acid]	13.7%	–	–
O=C(O)CCCC1Cc2c(Cl)cccc2C1=O (stereo not shown) [Example 11, 4-chloro-1-oxo-2,3-dihydro-2-indene butyric acid]	13.9%	–	–
O=C(O)CCCC1Cc2c(Cl)cc(Cl)cc2C1=O (stereo not shown) [Example 13, 4,6-dichloro-1-oxo-2,3-dihydro-2-indene butyric acid]	22.5%	1/6	–
O=C(O)CCCC1Cc2ccc(Cl)cc2C1=O (stereo not shown) [Example 2, 6-chloro-1-oxo-2,3-dihydro-2-indene butyric acid]	37.7%	2/6	–
O=C(O)CCC1Cc2cc(Cl)ccc2C1=O (stereo not shown) [Example 8, 5-chloro-1-oxo-2,3-dihydro-2-indene propionic acid]	17.5%	–	–
O=C(O)CCC1Cc2c(F)cccc2C1=O (stereo not shown) [Example 5, 4-fluoro-1-oxo-2,3-dihydro-2-indene propionic acid]	41.7%	2/6	–
O=C(O)CCCC1Cc2ccc(F)cc2C1=O (stereo not shown) [Example 1, 6-fluoro-1-oxo-2,3-dihydro-2-indene butyric acid]	26.7%	1/6	–
O=C(O)CCC1Cc2ccc(F)cc2C1=O (stereo not shown) [Example 6, 6-fluoro-1-oxo-2,3-dihydro-2-indene propionic acid]	39.4%	2/6	Lethality (mice; 500 mg/kg orally): 0/6; Lethality (mice; 1,000 mg/kg orally): 0/6
O=C(O)CCCCC1Cc2ccc(Cl)cc2C1=O (stereo not shown) [Example 16, 6-chloro-1-oxo-2,3-dihydro-2-indene valeric acid]	16.2%	–	–
O=C(O)CCCCC1Cc2c(Cl)cccc2C1=O (stereo not shown) [Example 14, 4-chloro-1-oxo-2,3-dihydro-2-indene valeric acid]	18.6%	0/6	–
O=C(O)CCCCC1Cc2cc(Cl)ccc2C1=O (stereo not shown) [Example 15, 5-chloro-1-oxo-2,3-dihydro-2-indene valeric acid]	35.3%	0/6	–
COc1ccc2c(c1)c(CC(=O)O)c(C)n2C(=O)c1ccc(Cl)cc1 [Indomethacin, indomethacin, reference compound]	–	–	inhibition in vivo at 5 mg/kg (passive Arthus reaction): 8.1%; Lethality (mice; 50 mg/kg orally): 6/6
